From patent US8822377B2, “Herbicidal compositions comprising topramezone and pinoxaden” (BASF SE, priority 2011, dated 2014)

Assays:
[1] = system: TRZAW (winter wheat) Cubus; assay: Greenhouse post-emergence crop damage rating, winter wheat; conditions: topramezone 12 g a.i./ha, 0=no damage, 100=complete destruction
Method: (§1) The culture containers used were plastic pots containing loamy sand with approximately 3.0% of humus as substrate. The seeds of the test plants were sown separately for each species.
(§2) In all use examples, plants were grown in a greenhouse environment.
(§3) To this end, the test plants were either sown directly and grown in the same containers, or they were first grown separately as seedlings and transplanted into the test containers a few days prior to treatment.
(§4) Depending on the species, the plants were kept at 10-25° C. and 20-35° C., respectively. The test period extended over 1 to 4 weeks. During this time, the plants were tended and their response to the individual treatments was evaluated.
(§5) Topramezone was used as a commercial suspension concentrate (Clio® of BASF SE) having an active ingredient concentration of 336 g/l.
(§6) The evaluation for the damage caused by the chemical compositions was carried out using a scale from 0 to 100%, compared to the untreated control plants. Here, 0 means no damage and 100 means complete destruction of the plants.

[2] = system: TRZAS Taifun; assay: Greenhouse post-emergence crop damage rating, wheat TRZAS; conditions: topramezone 12 g a.i./ha
Method: as §1, §2, §3, §4, §5, §6

[3] = system: HORVW (winter barley) Highlight; assay: Greenhouse post-emergence crop damage rating, winter barley; conditions: topramezone 12 g a.i./ha
Method: as §1, §2, §3, §4, §5, §6

[4] = system: GALAP (cleaver); assay: Greenhouse post-emergence herbicidal activity against cleaver; format: in vivo; conditions: Galium aparine, 648 h, topramezone 12 g a.i./ha, read-out: Herbicidal activity (%) at 27 DAT Observed GALAP GS22
Text: (§7) The test period extended over 1 to 4 weeks.
(§8) 22 ff. E=X+Y−(X·Y/100) where • X=effect in percent using herbicide A at an application rate a; • Y=effect in percent using pinoxaden (herbicide B) at application rate b or a combination of pinoxaden and safener C at application rates b and c; • E=expected effect (in %) of A+B at application rates a+b or of A+B+C at application rates a+b+c.
(§9) The value E corresponds to the effect (plant damage or injury) which is to be expected if the activity of the individual compounds is just additive. If the observed effect is higher than the value E calculated according to Colby, a synergistic effect is present.

[5] = system: VERPE (field speedwell); assay: Greenhouse post-emergence herbicidal activity against field speedwell; format: in vivo; conditions: Veronica persica, 648 h, topramezone 12 g a.i./ha, read-out: Herbicidal activity (%) at 27 DAT Observed VERPE GS22
Text: as §7, §8, §9

## Cc1c(C(=O)c2cnn(C)c2O)ccc(S(C)(=O)=O)c1C1=NOCC1 [Topramezone, [3-(4,5-dihydro-1,2-oxazol-3-yl)-4-mesyl-o-tolyl](5-hydroxy-1-methylpyrazol-4-yl)methanone]
[1]
  Herbicidal activity (%) at 27 DAT TRZAW Cubus GS12: 20%
[2]
  Herbicidal activity (%) at 27 DAT TRZAS Taifun GS11: 30%
[3]
  Herbicidal activity (%) at 27 DAT HORVW Highlight GS11: 20%
[4]
  inhibition at 12 g/ha: 90%
[5]
  inhibition at 12 g/ha: 75%
